Source: patent US10179789B2, “Methylenedioxybenzo [I] phenanthridine derivatives used to treat cancer” (Rutgers, The State University of New Jersey, priority 2009, dated 2019)
Like-named read-outs stand apart in the source and are kept apart here. Values belong to the molecule of their own block, whether it stands above or below them.

Assays:
human topoisomerase I = target: T1, human topoisomerase I (Homo sapiens, UniProt P11387); assay: Test A. Topoisomerase I-mediated DNA cleavage assay; format: biochemical; conditions: Relative Effective Concentration; relative to camptothecin arbitrarily assumed as 0.2; same 10% cleavage on plasmid DNA
T1 construct: unnamed fusion partner (recombinant fusion protein, T7 expression system); made in house; host or cells: Escherichia coli
T1 sequence (P11387 1-765): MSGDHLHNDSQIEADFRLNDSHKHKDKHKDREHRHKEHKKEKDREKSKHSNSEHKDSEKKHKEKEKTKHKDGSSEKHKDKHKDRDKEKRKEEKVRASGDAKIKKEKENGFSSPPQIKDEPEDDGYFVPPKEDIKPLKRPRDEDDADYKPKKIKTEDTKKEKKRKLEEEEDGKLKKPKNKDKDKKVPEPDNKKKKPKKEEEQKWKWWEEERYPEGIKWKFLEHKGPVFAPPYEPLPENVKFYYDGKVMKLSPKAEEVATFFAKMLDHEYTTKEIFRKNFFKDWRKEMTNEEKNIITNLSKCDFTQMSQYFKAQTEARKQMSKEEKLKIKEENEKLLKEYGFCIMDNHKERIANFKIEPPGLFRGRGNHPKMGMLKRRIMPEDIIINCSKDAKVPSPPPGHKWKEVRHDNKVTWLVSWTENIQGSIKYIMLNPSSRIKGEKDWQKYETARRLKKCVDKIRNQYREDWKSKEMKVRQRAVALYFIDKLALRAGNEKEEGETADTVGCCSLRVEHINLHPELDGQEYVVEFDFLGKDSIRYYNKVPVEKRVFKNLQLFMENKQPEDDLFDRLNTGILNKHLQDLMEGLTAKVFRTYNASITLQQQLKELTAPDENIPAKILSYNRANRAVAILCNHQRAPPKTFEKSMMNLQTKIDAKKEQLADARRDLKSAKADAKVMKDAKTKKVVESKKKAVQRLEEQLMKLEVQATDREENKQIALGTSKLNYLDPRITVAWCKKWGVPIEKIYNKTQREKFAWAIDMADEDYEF
Source text: Test A. Topoisomerase I—Mediated DNA Cleavage Assay Human topoisomerase I was expressed in Escherichia coli and isolated as a recombinant fusion protein using a T7 expression system as described previously (31). Plasmid YepG was also purified by the alkali lysis method followed by phenol deproteination and CsCl/ethidium isopycnic centrifugation method as described (32). The 3′ end labeling of the plasmid was accomplished by digestion with a restriction enzyme followed by end filling with Klenow polymerase as previously described (33). The cleavage assays were performed as previously reported (34,35). The drug and the DNA in presence of topoisomerase I was incubated for 30 min at room temperature. The reactions were terminated by the addition of 5 μL of 5% SDS and 1 mg/mL […] with an additional 1 h of incubation at 37° C. […] After development of the gels, typically 24-h exposure was used to obtain autoradiograms outlining the extent of DNA fragmentation. Topoisomerase I-mediated DNA cleavage values are reported as Relative Effective Concentration (REC). […] Results for the assay for representative compounds of the invention of formula I along with comparison compounds are shown in Table 1.

[1] = system: RPMI 8402 human lymphoblast cells; assay: Test B. MTT cytotoxicity assay, RPMI8402; format: cell-based
Procedure: (§1) Test B. Cytotoxic Assays (Cancer Cell Lines and Efflux Transporter Cell Lines)
(§2) The cytotoxicity was determined using the MTT-microtiter plate tetrazolinium cytotoxicity assay (MTA). The human lymphoblast RPMI 8402 and its camptothecin-resistant variant cell line, CPT-K5 was provided by Dr. Toshiwo Andoh (Aichi Cancer Center Research Institute, Nagoya, Japan). (36) The P388 mouse leukemia cell line and its CPT-resistant TOP1-deficient variant P388/CPT45 (37) were obtained from Michael R. Mattern and Randal K. Johnson (GlaxoSmithKline, King of Prussia, Pa.). The KB3-1 cell line and its multidrug-resistant variant KBV-1 (38) were obtained from K. V. Chin (The Cancer Institute of New Jersey, New Brunswick, N.J.). The KBH5.0 cell line as noted previously (21) was derived from KB3-1 by stepwise selection against Hoechst 33342. The cytotoxicity assay was performed using 96-well microtiter plates. Cells were grown in suspension at 37° C. in 5% CO2 and maintained by regular passage in RPMI medium supplemented with 10% heat inactivated fetal bovine serum, L-glutamine (2 mM), penicillin (100 U/mL), and Streptomycin (0.1 mg/mL). For determination of IC50, cells were exposed continuously for FOUR days to varying concentrations of drug, and MTT assays were performed at the end of the fourth day. […] All assays were performed at least twice in six replicate wells.

[2] = system: CPT-K5 (camptothecin-resistant variant of RPMI 8402); assay: Test B. MTT cytotoxicity assay, CPT-K5; format: cell-based, human
Procedure: as §1, §2

[3] = system: P388 mouse leukemia cell line; assay: Test B. MTT cytotoxicity assay, P388; format: cell-based
Procedure: as §1, §2

[4] = system: P388/CPT45 (CPT-resistant TOP1-deficient variant of P388); assay: Test B. MTT cytotoxicity assay, P388/CPT45; format: cell-based, mouse
Procedure: as §1, §2

[5] = Cytotoxicity on KB3-1 (parent cell line); format: cell-based; conditions: human
Procedure: as §2
(§3) The cytotoxicity of the representative compounds of the invention were also tested on cell line KB3-1 (parent cell line), KBV-1 (a variant that overexpresses efflux transporter MDR1) and KBH5.0 (a variant that overexpresses BCRP). Differences in the relative cytotoxicity between the parent and variant cell lines may be indicative of a compound that is a substrate for an efflux transporter. […] Accordingly, compounds of the invention of formula I may be useful to treat tumors that are resistant to other anticancer agents, especially anticancer agents that are susceptible to efflux by BCRP (e.g. anthracyclines, mitoxantrone, topotecan, irinotecan, bisanthrone, doxorubicin, daunorubicin, and epirubin.

MDR1 = assay: Cytotoxicity on KBV-1 (overexpresses MDR1); format: cell-based; conditions: human
Procedure: as §2, §3

BCRP = assay: Cytotoxicity on KBH5.0 (overexpresses BCRP); format: cell-based; conditions: human
Procedure: as §2, §3

[6] = system: KBH5.0 (variant that overexpresses BCRP); assay: Cytotoxicity on KBH5.0 (overexpresses BCRP); format: cell-based
Procedure: as §2, §3

KB3-1 cell line = assay: Cytotoxicity on KB3-1 (parent cell line); format: cell-based
Procedure: as §2, §3

[7] = system: KBV-1 (variant that overexpresses efflux transporter MDR1); assay: Cytotoxicity on KBV-1 (overexpresses MDR1); format: cell-based
Procedure: as §2, §3

[8] = Homo sapiens, RPMI 8402, 96 h, read-out: Cytotoxicity IC50 RPMI8402
[9] = Homo sapiens, CPT-K5, 96 h, read-out: Cytotoxicity IC50 CPT-K5
[10] = Mus musculus, P388, 96 h, read-out: Cytotoxicity IC50 P388
[11] = Mus musculus, P388CPT45, 96 h, read-out: Cytotoxicity IC50 P388/CPT45

SMILES: COc1cc2c(C(=O)NCC(C)(C)N)cc3c4cc5c(cc4ncc3c2cc1OC)OCO5 [Compound 33, N-(2-Amino-2-methylpropyl)-2,3-dimethoxy-8,9-methylenedioxybenzo[i]phenanthridine-12-carboxamide]
- TOP1 Mediated DNA Cleavage (REC Value) (human topoisomerase I): 1.1
- IC50 [1, 8]: 10 nM
- IC50 [2, 9]: 2200 nM
- IC50 [3, 10]: 20 nM
- IC50 [4, 11]: 760 nM
- IC50 at 4 days [5]: 4 nM
- IC50 at 4 days (MDR1): 480 nM
- IC50 at 4 days (BCRP): 190 nM
- melting point: 269 to 271 °C (dec.)

SMILES: COc1cc2c(C(=O)NCCC(C)(C)N(C)C)cc3c4cc5c(cc4ncc3c2cc1OC)OCO5 [Compound 42, 2,3-Dimethoxy-N-(3-(dimethylamino)-3-methylbutyl)-8,9-methylenedioxybenzo[i]phenanthridine-12-carboxamide]
- TOP1 Mediated DNA Cleavage (REC Value) (human topoisomerase I): 2.3
- IC50 [1, 8]: 25 nM
- IC50 [2, 9]: 2070 nM
- IC50 [3, 10]: 90 nM
- IC50 [4, 11]: 530 nM
- IC50 at 4 days [5]: 50 nM
- IC50 at 4 days (MDR1): 2500 nM
- IC50 at 4 days (BCRP): 160 nM
- melting point: 228 to 230 °C

SMILES: COc1cc2cc(C(=O)NCC(C)(C)N(C)C)c3c4cc5c(cc4ncc3c2cc1OC)OCO5 [Compound 34, 2,3-Dimethoxy-8,9-methylenedioxybenzo[i]phenanthridine-11-carboxylic acid 2-(dimethylamino)-2-methylpropylamide]
- TOP1 Mediated DNA Cleavage (REC Value) (human topoisomerase I): 0.09
- IC50 [1, 8]: 3 nM
- IC50 [2, 9]: 500 nM
- IC50 [3, 10]: 2 nM
- IC50 [4, 11]: 230 nM
- IC50 at 4 days [5]: 3 nM
- IC50 at 4 days (MDR1): 65 nM
- IC50 at 4 days (BCRP): 10 nM
- substrate for BCRP ([6]; not told): not substrates for BCRP
- melting point: 222 to 225 °C

SMILES: COc1cc2c(C(=O)NCCCC(C)(C)N(C)C)cc3c4cc5c(cc4ncc3c2cc1OC)OCO5 [Compound 43, 2,3-Dimethoxy-N-(4-(dimethylamino)-4-methylpentyl)-8,9-methylenedioxybenzo[i]phenanthridine-12-carboxamide]
- TOP1 Mediated DNA Cleavage (REC Value) (human topoisomerase I): 3.4
- IC50 [1, 8]: 160 nM
- IC50 [2, 9]: 3000 nM
- IC50 [3, 10]: 180 nM
- IC50 [4, 11]: 400 nM
- IC50 at 4 days [5]: 250 nM
- IC50 at 4 days (MDR1): 2800 nM
- IC50 at 4 days (BCRP): 600 nM
- melting point: 235 to 237 °C

SMILES: CC[C@@]1(O)C(=O)OCc2c1cc1n(c2=O)Cc2cc3ccccc3nc2-1 [CPT, Camptothecin, reference compound]
- TOP1 Mediated DNA Cleavage (REC Value) (human topoisomerase I): 0.2
- IC50 ([1]; Homo sapiens, RPMI 8402, 96 h, RPMI8402, four days continuous exposure, MTT, read-out: Cytotoxicity IC50 RPMI8402): 6 nM
- IC50 ([2]; Homo sapiens, 96 h, CPT-K5, four days continuous exposure, MTT, read-out: Cytotoxicity IC50 CPT-K5): > 10000 nM
- IC50 ([3]; Mus musculus, 96 h, P388, four days continuous exposure, MTT, read-out: Cytotoxicity IC50 P388): 14 nM
- IC50 [4, 11]: > 10000 nM
- IC50 at 4 days ([5]; KB3-1 cells (parent cell line), KB3-1 parent cell line, read-out: Cytotoxicity KB3-1): 15 nM
- IC50 at 4 days (MDR1; KBV-1, overexpresses MDR1, read-out: Cytotoxicity KBV-1): 25 nM
- IC50 at 4 days (BCRP; KBH5.0 cells (KB3-1 variant that overexpresses BCRP), KBH5.0, overexpresses BCRP, read-out: Cytotoxicity KBH5.0): 26 nM

SMILES: COc1cc2c(C(=O)NCC(C)(C)N(Cc3ccccc3)Cc3ccccc3)cc3c4cc5c(cc4ncc3c2cc1OC)OCO5 [Compound 32, N-(2-(Dibenzylamino)-2-methylpropyl)-2,3-dimethoxy-8,9-methylene-dioxybenzo[i]phenanthridine-12-carboxamide]
- TOP1 Mediated DNA Cleavage (REC Value) (human topoisomerase I): 1.5
- IC50 [1]: 60 nM
- IC50 [2]: 5000 nM
- IC50 [3]: 30 nM
- IC50 [4]: 1300 nM
- IC50 (KB3-1 cell line): 20 nM
- IC50 [7]: 2900 nM
- IC50 [6]: 600 nM

Continued, in another order:

- TOP1 Mediated DNA Cleavage (REC Value) (human topoisomerase I): 0.2
SMILES: COc1cc2cc(C(=O)NCCN(C)C)c3c4cc5c(cc4ncc3c2cc1OC)OCO5 [Compound 216, reference compound]
- IC50 [1, 8]: 35 nM
- IC50 [2, 9]: 630 nM
- IC50 [3, 10]: 15 nM
- IC50 [4, 11]: 260 nM
- IC50 at 4 days [5]: 27 nM
- IC50 at 4 days (MDR1): 1400 nM
- IC50 at 4 days (BCRP): 200 nM

- TOP1 Mediated DNA Cleavage (REC Value) (human topoisomerase I): 2.5
- melting point: 239 to 242 °C
SMILES: COc1cc2cc(C(=O)NCCCC(C)(C)N(C)C)c3c4cc5c(cc4ncc3c2cc1OC)OCO5 [Compound 45, 2,3-Dimethoxy-8,9-methylenedioxybenzo[i]phenanthridine-11-carboxylic acid 4-(dimethylamino)-4-methylpentylamide]
- IC50 [1, 8]: 280 nM
- IC50 [2, 9]: 5500 nM
- IC50 [3, 10]: 280 nM
- IC50 [4, 11]: 3250 nM
- IC50 at 4 days [5]: 210 nM
- IC50 at 4 days (MDR1): > 10000 nM
- IC50 at 4 days (BCRP): 850 nM

- TOP1 Mediated DNA Cleavage (REC Value) (human topoisomerase I): 0.4
- melting point: 233 to 235 °C
SMILES: COc1cc2cc(C(=O)NCCC(C)(C)N(C)C)c3c4cc5c(cc4ncc3c2cc1OC)OCO5 [Compound 44, 2,3-Dimethoxy-8,9-methylenedioxybenzo[i]phenanthridine-11-carboxylic acid 3-(dimethylamino)-3-methylbutylamide]
- IC50 [1, 8]: 150 nM
- IC50 [2, 9]: 5000 nM
- IC50 [3, 10]: 270 nM
- IC50 [4, 11]: 1270 nM
- IC50 at 4 days [5]: 240 nM
- IC50 at 4 days (MDR1): > 10000 nM
- IC50 at 4 days (BCRP): 470 nM

- TOP1 Mediated DNA Cleavage (REC Value) (human topoisomerase I): 0.1
SMILES: COc1cc2c(C(=O)NCCN(C)C)cc3c4cc5c(cc4ncc3c2cc1OC)OCO5 [Compound 206, reference compound]
- IC50 [1, 8]: 3 nM
- IC50 [2, 9]: 1000 nM
- IC50 [3, 10]: 3 nM
- IC50 [4, 11]: 320 nM
- IC50 at 4 days [5]: 5 nM
- IC50 at 4 days (MDR1): 220 nM
- IC50 at 4 days (BCRP): 60 nM

- TOP1 Mediated DNA Cleavage (REC Value) (human topoisomerase I): 1.0
SMILES: CC[C@@]1(O)C(=O)OCc2c1cc1n(c2=O)Cc2cc3c(CN(C)C)c(O)ccc3nc2-1 [Topotecan, topotecan, reference compound]
- IC50 [1, 8]: 21 nM
- IC50 [2, 9]: > 10000 nM
- IC50 [3, 10]: 45 nM
- IC50 [4, 11]: > 10000 nM
- IC50 at 4 days [5]: 40 nM
- IC50 at 4 days (MDR1): 440 nM
- IC50 at 4 days (BCRP): 440 nM
